# Read-outs that look alike come from different tables or passages of the source.
# What was measured:
# PARP-1 = target: T1, PARP-1 (Homo sapiens, UniProt P09874); assay: PARP-1 inhibition assay (PARP-1 Chemiluminescent Assay Kit, BPS Bioscience); assay type: biochemical; settings: 10 nM compound
# T1 construct: purchased BPS Bioscience 80569
# Experimental: (§1) The PARP-1 and PARP-2 inhibition assays were performed in outsourcing, by a CRO company, Shanghai Medicilon Inc. (Shanghai, China). […] Briefly, PARP-1 or PARP-2 biotinylated substrate was incubated with compounds or solvent control at varying concentrations and an assay buffer containing the PARP-1 or PARP-2 enzyme.
# PARP-2 = target: T2, PARP-2 (Homo sapiens, UniProt Q9UGN5); assay: PARP-2 inhibition assay (PARP-2 Chemiluminescent Assay Kit, BPS Bioscience); assay type: biochemical; settings: 10 nM compound
# T2 construct: purchased BPS Bioscience 80552
# Experimental: as §1
# [1] = test system: MDA-MB-436 (a BRCA-1-mutated breast cancer cell line); assay: Cell proliferation assay, three-day, CellTiter-Glo, MDA-MB-436; assay type: cell-based; settings: Homo sapiens; for inhibition at 0.00508 µM: MDA-MB-436, MDA-MB-436, Conc. 0.00508 uM; for inhibition at 0.0152 µM: MDA-MB-436, MDA-MB-436, Conc. 0.0152 uM; for inhibition at 0.0457 µM: MDA-MB-436, MDA-MB-436, Conc. 0.0457 uM; for inhibition at 0.41 µM: MDA-MB-436, MDA-MB-436, Conc. 0.41 uM; for inhibition at 1.23 µM: MDA-MB-436, MDA-MB-436, Conc. 1.23 uM; for inhibition at 3.7 µM: MDA-MB-436, MDA-MB-436, Conc. 3.70 uM; for inhibition at 11.11 µM: MDA-MB-436, MDA-MB-436, Conc. 11.11 uM; for inhibition at 33.33 µM: MDA-MB-436, MDA-MB-436, Conc. 33.33 uM; for inhibition at 100 µM: MDA-MB-436, MDA-MB-436, Conc. 100.00 uM; for IC50: MDA-MB-436, 72 h, CellTiter-Glo, read-out: MDA-MB-436 IC50
# How it was run: (§2)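 Cells seeded overnight in 384-well plates, then exposed to compounds (DMSO stock diluted in medium) for 72 h at 37 °C, 5% CO2. Viability read as CellTiter-Glo luminescence after 60 min at room temperature.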
# [2] = test system: CAPAN-1 (a BRCA-2-mutated pancreatic cancer cell line); assay: Cell proliferation assay, three-day, CellTiter-Glo, CAPAN-1; assay type: cell-based; settings: Homo sapiens; for IC50: CAPAN-1, 72 h, CellTiter-Glo, read-out: CAPAN-1 IC50; for inhibition at 0.00508 µM: CAPAN-1, Conc. 0.00508 uM; for inhibition at 0.0152 µM: CAPAN-1, Conc. 0.0152 uM; for inhibition at 0.0457 µM: CAPAN-1, Conc. 0.0457 uM; for inhibition at […]: CAPAN-1, Conc. 0.14 uM; for inhibition at 0.41 µM: CAPAN-1, Conc. 0.41 uM; for inhibition at 1.23 µM: CAPAN-1, Conc. 1.23 uM; for inhibition at 3.7 µM: CAPAN-1, Conc. 3.70 uM; for inhibition at 11.11 µM: CAPAN-1, Conc. 11.11 uM; for inhibition at 33.33 µM: CAPAN-1, Conc. 33.33 uM; for inhibition at 100 µM: CAPAN-1, Conc. 100.00 uM
# How it was run: as §2
# [3] = supplement sheet, read-out: 10 nM inhibition% PAPR-1
# [4] = read-out: PARP-1 Inhibition % (10 nM)
# [5] = supplement sheet, read-out: 10 nM inhibition% PAPR-2
# [6] = read-out: PARP-2 Inhibition % (10 nM)
# T1 sequence (P09874 whole entry): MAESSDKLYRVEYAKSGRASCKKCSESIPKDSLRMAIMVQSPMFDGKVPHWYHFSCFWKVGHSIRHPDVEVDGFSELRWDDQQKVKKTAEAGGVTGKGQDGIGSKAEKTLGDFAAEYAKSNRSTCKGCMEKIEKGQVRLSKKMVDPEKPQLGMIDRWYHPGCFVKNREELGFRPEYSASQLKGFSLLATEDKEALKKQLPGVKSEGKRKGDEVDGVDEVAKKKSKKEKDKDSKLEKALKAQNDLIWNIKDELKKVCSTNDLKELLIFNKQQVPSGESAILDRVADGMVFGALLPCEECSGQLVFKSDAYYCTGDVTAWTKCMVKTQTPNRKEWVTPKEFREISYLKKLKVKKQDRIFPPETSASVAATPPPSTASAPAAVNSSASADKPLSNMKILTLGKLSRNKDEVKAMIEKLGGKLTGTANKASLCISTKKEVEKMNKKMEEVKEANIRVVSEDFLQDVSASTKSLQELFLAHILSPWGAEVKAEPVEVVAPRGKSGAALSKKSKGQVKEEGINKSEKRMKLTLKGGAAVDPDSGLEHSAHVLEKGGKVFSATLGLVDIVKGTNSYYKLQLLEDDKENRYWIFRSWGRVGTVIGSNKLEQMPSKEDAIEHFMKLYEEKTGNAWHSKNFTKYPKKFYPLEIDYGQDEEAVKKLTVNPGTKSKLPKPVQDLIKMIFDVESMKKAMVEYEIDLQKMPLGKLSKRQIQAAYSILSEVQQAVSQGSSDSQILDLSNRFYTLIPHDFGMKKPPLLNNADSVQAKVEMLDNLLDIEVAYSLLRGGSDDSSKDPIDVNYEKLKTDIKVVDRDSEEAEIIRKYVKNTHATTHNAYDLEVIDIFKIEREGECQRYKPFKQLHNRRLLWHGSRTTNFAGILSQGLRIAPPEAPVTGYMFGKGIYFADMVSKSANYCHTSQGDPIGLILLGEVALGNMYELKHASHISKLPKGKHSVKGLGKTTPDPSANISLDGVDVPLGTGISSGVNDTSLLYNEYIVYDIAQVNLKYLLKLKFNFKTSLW
# T2 sequence (Q9UGN5 whole entry): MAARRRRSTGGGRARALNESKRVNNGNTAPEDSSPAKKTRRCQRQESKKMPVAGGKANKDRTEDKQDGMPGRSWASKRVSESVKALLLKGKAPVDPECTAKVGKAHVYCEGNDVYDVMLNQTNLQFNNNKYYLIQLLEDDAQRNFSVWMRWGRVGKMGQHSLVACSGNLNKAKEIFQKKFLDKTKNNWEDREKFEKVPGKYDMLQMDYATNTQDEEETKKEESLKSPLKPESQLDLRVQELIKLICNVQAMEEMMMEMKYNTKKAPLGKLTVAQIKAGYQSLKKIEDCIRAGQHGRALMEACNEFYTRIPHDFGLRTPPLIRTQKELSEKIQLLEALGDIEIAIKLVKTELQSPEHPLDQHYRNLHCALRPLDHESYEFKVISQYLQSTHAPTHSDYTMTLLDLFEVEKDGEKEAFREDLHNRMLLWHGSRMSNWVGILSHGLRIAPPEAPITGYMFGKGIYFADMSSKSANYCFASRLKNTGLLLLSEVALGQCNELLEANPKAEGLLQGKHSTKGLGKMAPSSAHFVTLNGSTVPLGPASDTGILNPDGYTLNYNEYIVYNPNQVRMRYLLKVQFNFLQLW
compound,measurement,setting,value
"NCCN1CCC(c2nc3c(C(N)=O)cccc3[nH]2)C1 (stereo not shown) [Compound 5cm, 2-(1-(2-Aminoethyl)pyrrolidin-3-yl)-1H-benzo[d]imidazole-4-carboxamide]",inhibition at 0.01 µM,PARP-1; [3],24.8%
same,inhibition at 0.01 µM,PARP-1; [4],24.8%
same,inhibition at 0.01 µM,PARP-2; [5],32.8%
same,inhibition at 0.01 µM,PARP-2; [6],32.8%
same,inhibition at 0.00508 µM,"[1]; replicate 1, read-out: Inh % 1",-8.5%
same,inhibition at 0.00508 µM,"[1]; replicate 2, read-out: Inh % 2",-9.3%
same,inhibition at 0.0152 µM,"[1]; replicate 1, read-out: Inh % 1",1.1%
same,inhibition at 0.0152 µM,"[1]; replicate 2, read-out: Inh % 2",-4.9%
same,inhibition at 0.0457 µM,"[1]; replicate 1, read-out: Inh % 1",-11.2%
same,inhibition at 0.0457 µM,"[1]; replicate 2, read-out: Inh % 2",-10.5%
same,inhibition at 0.41 µM,"[1]; replicate 1, read-out: Inh % 1",-6.2%
same,inhibition at 0.41 µM,"[1]; replicate 2, read-out: Inh % 2",-16.8%
same,inhibition at 1.23 µM,"[1]; replicate 1, read-out: Inh % 1",-5.3%
same,inhibition at 1.23 µM,"[1]; replicate 2, read-out: Inh % 2",-11.1%
same,inhibition at 3.7 µM,"[1]; replicate 1, read-out: Inh % 1",-4.9%
same,inhibition at 3.7 µM,"[1]; replicate 2, read-out: Inh % 2",-6.8%
same,inhibition at 11.11 µM,"[1]; replicate 1, read-out: Inh % 1",-3.6%
same,inhibition at 11.11 µM,"[1]; replicate 2, read-out: Inh % 2",-6.5%
same,inhibition at 33.33 µM,"[1]; replicate 1, read-out: Inh % 1",3%
same,inhibition at 33.33 µM,"[1]; replicate 2, read-out: Inh % 2",-4.3%
same,inhibition at 100 µM,"[1]; replicate 1, read-out: Inh % 1",16.7%
same,inhibition at 100 µM,"[1]; replicate 2, read-out: Inh % 2",7.9%
same,IC50,[1],> 100 µM
same,IC50,[2],> 100 µM
same,inhibition at 0.00508 µM,"[2]; replicate 1, read-out: Inh % 1",-3.2%
same,inhibition at 0.00508 µM,"[2]; replicate 2, read-out: Inh % 2",4.5%
same,inhibition at 0.0152 µM,"[2]; replicate 1, read-out: Inh % 1",-3%
same,inhibition at 0.0152 µM,"[2]; replicate 2, read-out: Inh % 2",-13.2%
same,inhibition at 0.0457 µM,"[2]; replicate 1, read-out: Inh % 1",-3.1%
same,inhibition at 0.0457 µM,"[2]; replicate 2, read-out: Inh % 2",-9.3%
same,inhibition at […],"[2]; replicate 1, read-out: Inh % 1",0.182%
same,inhibition at […],"[2]; replicate 2, read-out: Inh % 2",-8.2%
same,inhibition at 0.41 µM,"[2]; replicate 1, read-out: Inh % 1",4%
same,inhibition at 0.41 µM,"[2]; replicate 2, read-out: Inh % 2",-2.2%
same,inhibition at 1.23 µM,"[2]; replicate 1, read-out: Inh % 1",-2.5%
same,inhibition at 1.23 µM,"[2]; replicate 2, read-out: Inh % 2",-0.9%
same,inhibition at 3.7 µM,"[2]; replicate 1, read-out: Inh % 1",0.8%
same,inhibition at 3.7 µM,"[2]; replicate 2, read-out: Inh % 2",2.3%
same,inhibition at 11.11 µM,"[2]; replicate 1, read-out: Inh % 1",-3.4%
same,inhibition at 11.11 µM,"[2]; replicate 2, read-out: Inh % 2",4.2%
same,inhibition at 33.33 µM,"[2]; replicate 1, read-out: Inh % 1",-1.1%
same,inhibition at 33.33 µM,"[2]; replicate 2, read-out: Inh % 2",-7.7%
same,inhibition at 100 µM,"[2]; replicate 1, read-out: Inh % 1",0.459%
same,inhibition at 100 µM,"[2]; replicate 2, read-out: Inh % 2",-6%
"NC(=O)c1cccc2[nH]c(C3CCN(CCCNC(=O)c4ccccc4)C3)nc12 (stereo not shown) [Compound 5cn, 2-(1-(3-Benzamidopropyl)pyrrolidin-3-yl)-1H-benzo[d]imidazole-4-carboxamide]",inhibition at 0.01 µM,PARP-1; [3],19.4%
same,inhibition at 0.01 µM,PARP-1; [4],19.4%
same,inhibition at 0.01 µM,PARP-2; [5],39.1%
same,inhibition at 0.01 µM,PARP-2; [6],39.1%
same,inhibition at 0.00508 µM,"[1]; replicate 1, read-out: Inh % 1",1.6%
same,inhibition at 0.00508 µM,"[1]; replicate 2, read-out: Inh % 2",-5.1%
same,inhibition at 0.0152 µM,"[1]; replicate 1, read-out: Inh % 1",-1.4%
same,inhibition at 0.0152 µM,"[1]; replicate 2, read-out: Inh % 2",-3.5%
same,inhibition at 0.0457 µM,"[1]; replicate 1, read-out: Inh % 1",-9.2%
same,inhibition at 0.0457 µM,"[1]; replicate 2, read-out: Inh % 2",-11%
same,inhibition at 0.41 µM,"[1]; replicate 1, read-out: Inh % 1",-8.3%
same,inhibition at 0.41 µM,"[1]; replicate 2, read-out: Inh % 2",-13.4%
same,inhibition at 1.23 µM,"[1]; replicate 1, read-out: Inh % 1",-3%
same,inhibition at 1.23 µM,"[1]; replicate 2, read-out: Inh % 2",-5.3%
same,inhibition at 3.7 µM,"[1]; replicate 1, read-out: Inh % 1",-5.2%
same,inhibition at 3.7 µM,"[1]; replicate 2, read-out: Inh % 2",-8.2%
same,inhibition at 11.11 µM,"[1]; replicate 1, read-out: Inh % 1",-2.1%
same,inhibition at 11.11 µM,"[1]; replicate 2, read-out: Inh % 2",-9.2%
same,inhibition at 33.33 µM,"[1]; replicate 1, read-out: Inh % 1",12.1%
same,inhibition at 33.33 µM,"[1]; replicate 2, read-out: Inh % 2",1.5%
same,inhibition at 100 µM,"[1]; replicate 1, read-out: Inh % 1",21.7%
same,inhibition at 100 µM,"[1]; replicate 2, read-out: Inh % 2",20.8%
same,IC50,[1],> 100 µM
same,IC50,[2],> 100 µM
same,inhibition at 0.00508 µM,"[2]; replicate 1, read-out: Inh % 1",9.5%
same,inhibition at 0.00508 µM,"[2]; replicate 2, read-out: Inh % 2",-3.8%
same,inhibition at 0.0152 µM,"[2]; replicate 1, read-out: Inh % 1",-9.3%
same,inhibition at 0.0152 µM,"[2]; replicate 2, read-out: Inh % 2",-9.4%
same,inhibition at 0.0457 µM,"[2]; replicate 1, read-out: Inh % 1",1%
same,inhibition at 0.0457 µM,"[2]; replicate 2, read-out: Inh % 2",6.5%
same,inhibition at […],"[2]; replicate 1, read-out: Inh % 1",4.6%
same,inhibition at […],"[2]; replicate 2, read-out: Inh % 2",-10%
same,inhibition at 0.41 µM,"[2]; replicate 1, read-out: Inh % 1",-2.8%
same,inhibition at 0.41 µM,"[2]; replicate 2, read-out: Inh % 2",-4.1%
same,inhibition at 1.23 µM,"[2]; replicate 1, read-out: Inh % 1",3.1%
same,inhibition at 1.23 µM,"[2]; replicate 2, read-out: Inh % 2",-3.2%
same,inhibition at 3.7 µM,"[2]; replicate 1, read-out: Inh % 1",5.2%
same,inhibition at 3.7 µM,"[2]; replicate 2, read-out: Inh % 2",-3%
same,inhibition at 11.11 µM,"[2]; replicate 1, read-out: Inh % 1",2.8%
same,inhibition at 11.11 µM,"[2]; replicate 2, read-out: Inh % 2",-7.6%
same,inhibition at 33.33 µM,"[2]; replicate 1, read-out: Inh % 1",5.2%
same,inhibition at 33.33 µM,"[2]; replicate 2, read-out: Inh % 2",2%
same,inhibition at 100 µM,"[2]; replicate 1, read-out: Inh % 1",27.8%
same,inhibition at 100 µM,"[2]; replicate 2, read-out: Inh % 2",14.3%

# Source: article PMC6572064, “Discovery of 2-(1-(3-(4-Chloroxyphenyl)-3-oxo- propyl)pyrrolidine-3-yl)-1H-benzo[d]imidazole-4-carboxamide: A Potent Poly(ADP-ribose) Polymerase (PARP) Inhibitor for Treatment of Cancer” (Molecules, 2019)
